Results as given in patent US20170037028A1 (BAYER PHARMA AKTIENGESELLSCHAFT, priority 2013, published 2017).

Tests used:
Format in all cases: cell-based
GLUT1 [1] = target: T1, GLUT1 (Homo sapiens, UniProt P11166); assay: Indirect measurement of GLUT1 activity by quantification of intracellular ATP levels (glucose induced ATP increase); design: endogenous in cells; host or cells: DLD1 or CHO-K1; conditions: read-out: IC50 regarding glucose induced ATP increase (GLUT1 inhibition)
T1 sequence (P11166 1-492): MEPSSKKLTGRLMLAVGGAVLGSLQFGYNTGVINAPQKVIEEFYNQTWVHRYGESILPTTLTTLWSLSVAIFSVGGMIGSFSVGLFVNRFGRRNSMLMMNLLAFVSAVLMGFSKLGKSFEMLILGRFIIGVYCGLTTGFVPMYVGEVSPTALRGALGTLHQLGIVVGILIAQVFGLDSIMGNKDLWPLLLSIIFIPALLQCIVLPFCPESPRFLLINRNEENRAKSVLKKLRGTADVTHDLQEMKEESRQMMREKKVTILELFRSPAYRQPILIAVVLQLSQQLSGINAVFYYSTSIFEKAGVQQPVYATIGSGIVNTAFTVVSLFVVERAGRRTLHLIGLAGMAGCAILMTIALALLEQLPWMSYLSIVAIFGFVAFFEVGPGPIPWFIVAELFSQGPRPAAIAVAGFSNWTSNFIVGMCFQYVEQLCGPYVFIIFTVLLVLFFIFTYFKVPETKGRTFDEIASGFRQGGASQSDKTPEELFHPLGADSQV
Summary of the method: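 DLD1 or CHO-K1 cells were starved overnight in glucose-free medium with 1% FCS, then combined with an oxidative phosphorylation inhibitor. GLUT1 activity was read as glucose-induced ATP increase, GLUT2 as fructose-induced. Intracellular ATP was quantified by CellTiter-Glo luminescence.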

GLUT1 [2] = target: T1, GLUT1; assay: 2-deoxy-D-glucose (3H) uptake assay, GLUT1 inhibition in cell lines; conditions: H460 cell line; 3H-2-deoxy-D-glucose uptake; read-out: IC50 regarding GLUT1 inhibition
Procedure: Cells (e.g. H460 or CHO-K1) were cultured under standard conditions. 10000 cells per well were seeded in clear 96 well tissue culture isoplate plates and cultured overnight (PerkinElmer, 1450-516) under standard conditions. Culture medium was removed and cells were washed two times with 100 μL KRP buffer and then incubated for 45 minutes at 37° C. (KRP buffer: 10 mM sodium hydrogen phosphate, 130 mM sodium chloride, 5 mM potassium chloride, 1.3 mM magnesium sulfate, 1.3 mM calcium chloride (pH 7.5), 50 mM HEPES (pH 7.5), 4.7 mM potassium chloride, 1.25 mM magnesium sulfate, 1.25 mM calcium chloride) each. KRP wash buffer was removed and compound 126 (diluted in KRP buffer) was added and incubated for 30 minutes at 37° C. 200 nM radioligand (radioligand 2[1,2] 3H-Deoxy D-Glucose in KRP buffer) were added and incubated for 5 minutes at room temperature. The supernatant was removed and cells were washed with 100 μL ice-cold KRP for two times each. 25 μL of Lysis buffer (1% Triton-X, 0.5N sodium hydroxide) were added and incubated at room temperature for 5 minutes. 75 μL scintillation solution (Microscint-20, PerkinElmer) were added and the plates were shaken for 1 minute. The plates were incubated for 3 h at room temperature and the counts were determined by using a Wallace MicroBeta counter (60 seconds per well).

GLUT2 = target: T2, GLUT2 (Homo sapiens, UniProt P11168); assay: Indirect measurement of GLUT2 activity by quantification of intracellular ATP levels (fructose induced ATP increase); conditions: 10 mM fructose, 1 μM Rotenone, 15 min; CellTiter-Glo ATP readout; read-out: IC50 regarding fructose induced ATP increase (GLUT2 inhibition)
T2 construct: host or cells: DLD1 or CHO-K1
T2 sequence (P11168 1-524): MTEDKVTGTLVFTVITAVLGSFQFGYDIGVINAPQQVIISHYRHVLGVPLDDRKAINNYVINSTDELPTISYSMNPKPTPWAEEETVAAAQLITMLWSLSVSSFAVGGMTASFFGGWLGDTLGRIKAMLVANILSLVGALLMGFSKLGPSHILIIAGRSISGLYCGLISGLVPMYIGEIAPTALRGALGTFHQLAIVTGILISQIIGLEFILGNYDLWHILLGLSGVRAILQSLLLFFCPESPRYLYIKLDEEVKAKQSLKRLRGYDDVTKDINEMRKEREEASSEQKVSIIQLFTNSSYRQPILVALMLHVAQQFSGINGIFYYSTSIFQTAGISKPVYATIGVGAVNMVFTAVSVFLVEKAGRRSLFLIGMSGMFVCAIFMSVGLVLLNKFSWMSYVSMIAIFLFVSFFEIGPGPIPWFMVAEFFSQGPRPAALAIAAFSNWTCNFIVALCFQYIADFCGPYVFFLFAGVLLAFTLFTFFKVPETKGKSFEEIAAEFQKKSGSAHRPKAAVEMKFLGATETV
From the text: Indirect Measurement of GLUT1 and GLUT2 Activity by Quantification of Intracellular ATP Levels
It is well known that a combination of small-molecule inhibitors of mitochondrial electron transport chain and glucose catabolism synergistically suppress ATP production and impair cellular viability (Ulanovskaya et al., 2008, 2011; Liu, et al. 2001). We therefore used DLD1 or CHO-K1 cells in combination with an oxidative phosphorylation inhibitor to identify GLUT1 and GLUT2 inhibitors. Cell lines were maintained in DMEM medium supplemented with 10% FCS and 1% Penicillin-Streptomycin solution and 2% Glutamax. The cells were treated with trypsin and seeded into 384 plates at a density of 4000 cells/well. The cells were then cultured overnight in glucose free media containing 1% FCS to reduce intracellular ATP levels. […] The CellTiter-Glo® Luminescent Cell Viability Assay from Promega was then used to measure ATP Levels.

Compound `Cc1c(NC(=O)c2cc(C(N)=O)nc3ccccc23)c(C(F)(F)F)nn1Cc1ccc(C#N)cc1` [Example 126, N^4-[1-(4-cyanobenzyl)-5-methyl-3-(trifluoromethyl)-1H-pyrazol-4-yl]quinoline-2,4-dicarboxamide] has an IC50 (GLUT1 [1]) of 4.7 nM, an IC50 (GLUT1 [2]) of 15.4 nM and an IC50 (GLUT2) of 85400 nM.
